From patent US10894798B2, “Substituted dihydropyrrolopyrazole derivative” (UBE INDUSTRIES, LTD., priority 2015, dated 2021) come the findings set out here.

The experiment deals with IL-2 production. Nature of the experiment: Human PBMC CD3/CD28-induced IL-2 production inhibition test. The class given is cell-based. To be noted: 48 h, read-out: IC50 value, IL-2 production inhibition. As for the experimental part:
PBMC (peripheral blood mononuclear cell) was separated and collected by using Ficoll-Paque (manufactured by GE Healthcare Japan Corp.) from blood collected from a healthy human adult in the presence of heparin. A RPMI1640 medium containing 10% FBS, 1% penicillin/streptomycin/amphotericin B, essential amino acids, and pyruvic acid and containing a test compound dissolved in DMSO and 2 μg/mL CD28 was added at 100 μL/well to T cell Activation Plate Anti-Human CD3 96-well plate (manufactured by Becton, Dickinson and Company), and subsequently, a PBMC suspension prepared such that the number of cells was 2×10^6 cells/mL was added thereto at 100 μL/well (final DMSO concentration: 0.1%). A RPMI1640 medium containing 10% FBS and containing 0.1% DMSO and 2 μg/mL CD28 was similarly added to wells not supplemented with the test compound. After culture for 2 days in a carbon dioxide incubator, the culture supernatant was collected. The collected culture supernatant was stored at −20° C. until IL-2 content measurement.
In the measurement of an L-2 content in the culture supernatant, a sandwich ELISA kit (Quantikine Human IL-2, manufactured by R&D Systems, Inc.) was used. The L-2 content of each sample was calculated from the calibration curve of Standard IL-2 included in the kit. […] A test compound concentration necessary for inhibiting 50% of L-2 production (IC50 value) was calculated from the concentration of the added test compound and the rate of inhibition of IL-2 production by the test compound by using EXSUS (version 8.1.0, manufactured by CAC Exicare Corp.).

Setting [1] is: human PBMC, CD3/CD28 stimulation, culture for 2 days, ELISA.

Structures are written as SMILES. Read-outs that look alike come from different tables or passages of the source.

For orientation: IC50 means the concentration that gives 50% inhibition. On to `Cc1ccc(F)c(NC(=O)N2Cc3c(NC(=O)C4([Si](C)(C)C)CCC4)n[nH]c3C2(C)C)c1` [IV-127, N-(2-Fluoro-5-methylphenyl)-6,6-dimethyl-3-[1-(trimethylsilyl)cyclobutanecarboxamido]-4,6-dihydropyrrolo[3,4-c]pyrazole-5 (1H)-carboxamide], for which the IC50 under setting [1] was no more than 0.1 µM.
Same read-out and setting: the result for `COc1cccc(F)c1NC(=O)N1Cc2c(NC(=O)C3([Si](C)(C)C)CCC3)n[nH]c2C1(C)C` [IV-161, N-(2-Fluoro-6-methoxyphenyl)-6,6-dimethyl-3-[1-(trimethylsilyl)cyclobutanecarboxamido]-4,6-dihydropyrrolo[3,4-c]pyrazole-5(1H)-carboxamide] reads no more than 0.1 µM.
For `Cc1ccccc1NC(=O)N1Cc2c(NC(=O)C3([Si](C)(C)C)CCC3)n[nH]c2C1(C)C` [IV-21, 6,6-Dimethyl-N-(o-tolyl)-3-[1-(trimethylsilyl)cyclobutanecarboxamido]-4,6-dihydropyrrolo[3,4-c]pyrazole-5(1H)-carboxamide], under setting [1], the half-inhibitory concentration (IC50) was no more than 0.1 µM.
As to `CC1(C)c2[nH]nc(NC(=O)C3([Si](C)(C)C)CCC3)c2CN1C(=O)Nc1c(F)cccc1Cl` [IV-113, N-(2-Chloro-6-fluorophenyl)-6,6-dimethyl-3-[1-(trimethylsilyl)cyclobutanecarboxamido]-4,6-dihydropyrrolo[3,4-c]pyrazole-5(1H)-carboxamide], the IC50 (Homo sapiens, PBMC) is no more than 0.1 µM.
